Literature values, collected in patent US8613946B2, “Carotenoids of enhanced bioavailability” (ISP Investment Inc., priority 2006, dated 2013).
Read-outs that look alike come from different tables or passages of the source.

[1] = classification of The Merck Index

solubility in water [1] | solubility in water (statement of The PDR For Nutritional Supplements) | Structure (SMILES)
insoluble in water |  | CC1=C[C@H](O)CC(C)(C)[C@H]1/C=C/C(C)=C/C=C/C(C)=C/C=C/C=C(C)/C=C/C=C(C)/C=C/C1=C(C)C[C@@H](O)CC1(C)C [lutein]
 | insoluble in water | CC(C)=CCC/C(C)=C/C=C/C(C)=C/C=C/C(C)=C/C=C/C=C(C)/C=C/C=C(C)/C=C/C=C(\C)CCC=C(C)C [lycopene]
practically insoluble in water |  | CC1=CCCC(C)(C)C1/C=C/C(C)=C/C=C/C(C)=C/C=C/C=C(C)/C=C/C=C(C)/C=C/C1=C(C)CCCC1(C)C (stereo not drawn) [α-carotene]
practically insoluble in water |  | CC1=C(/C=C/C(C)=C/C=C/C(C)=C/C=C/C=C(C)/C=C/C=C(C)/C=C/C2=C(C)CCCC2(C)C)C(C)(C)CCC1 [β-carotene]
